Experimental data as given in ChEMBL document CHEMBL1140892, “Synthesis and evaluation of rifabutin analogs against Mycobacterium avium and H(37)Rv, MDR and NRP Mycobacterium tuberculosis” (Bioorg Med Chem, 2009).
In brackets after ≈: the same amount, converted by molar mass. Activity calls are given as the source filed them. No cut-off for these calls is given here.

Key:
[1] = test system: Mycobacterium tuberculosis; test: Antimycobacterial activity against non-replicating Mycobacterium tuberculosis assessed as luciferase activity incubated for 8 days measured after 24 hrs of incubation by low oxygen recover assay; assay type: functional
[2] = test system: Mycobacterium tuberculosis; test: Antimycobacterial activity against non-replicating Mycobacterium tuberculosis assessed as colony forming unit after 8 days; assay type: functional; conditions: 192 h
[3] = test system: Mycobacterium avium; test: Antimycobacterial activity against Mycobacterium avium 1581 at 0.4 mg/mL after 15 days relative to control; assay type: functional; conditions: for inhibition at 400 µg/mL: 360 h
[4] = Selectivity index, ratio of IC50 for african green monkey Vero cells to MIC for non-replicating Mycobacterium tuberculosis; assay type: functional
[5] = test system: Mycobacterium avium; test: Antimycobacterial activity against Mycobacterium avium 1581 at 0.2 mg/mL after 15 days relative to control; assay type: functional; conditions: 360 h
[6] = test system: Vero; test: Cytotoxicity against african green monkey Vero cells after 72 hrs by MTS assay; assay type: cell-based; conditions: Chlorocebus sabaeus
[7] = test system: Mycobacterium tuberculosis; test: Antimycobacterial activity against Mycobacterium tuberculosis H37Rv after 7 days by resazurin method; assay type: functional; conditions: 168 h
[8] = test system: Mycobacterium tuberculosis; test: Antimycobacterial activity against Mycobacterium tuberculosis H37Rv infected in BALB/c mouse assessed as lungs affected by pneumonia at 25 mg/kg/day, intragastrically after 1 month by histopathology study relative to control; assay type: functional, organism-based
[9] = test system: Mycobacterium tuberculosis; test: Antimycobacterial activity against Mycobacterium tuberculosis H37Rv infected in BALB/c mouse assessed as reduction of bacterial load in lungs at 25 mg/kg/day, intragastrically after 1 month relative to control; assay type: functional, organism-based
[10] = test system: Mycobacterium tuberculosis; test: Antimycobacterial activity against Mycobacterium tuberculosis H37Rv infected in BALB/c mouse assessed as reduction of bacterial load in lungs at 5 mg/kg/day, intragastrically after 1 month relative to control; assay type: functional, organism-based
[11] = test system: Mycobacterium avium; test: Antimycobacterial activity against Mycobacterium avium 1581 at 0.1 mg/mL after 15 days relative to control; assay type: functional; conditions: 360 h

| SMILES | MIC [1] [µM] | MBC [2] [µM] | inhibition at 400 µg/mL [3] [%] | Selectivity ratio [4] | inhibition at 200 µg/mL [5] [%] | IC50 [6] [µM] | MIC [7] [mg/L] | Activity [3] | Activity [8] | Activity [9] | Activity [10] | inhibition at 100 µg/mL [11] [%] |
| --- | --- | --- | --- | --- | --- | --- | --- | --- | --- | --- | --- | --- |
| CO[C@H]1/C=C/O[C@@]2(C)Oc3c(C)c(O)c4c(c3C2=O)C2=NC3(CCN(CC(C)C)CC3)NC2=C(NC(=O)/C(C)=C\C=C\[C@H](C)[C@H](O)[C@@H](C)[C@@H](O)[C@@H](C)[C@H](O)[C@@H]1C)C4=O | 0.29 (≈ 0.233 µg/mL) | 0.18 (≈ 0.145 µg/mL) | > 99 | >161 | 91 | > 46.6 | 0.025 (≈ 0.0311 µM) | – | – | – | – | – |
| CO[C@H]1/C=C/O[C@@]2(C)Oc3c(C)c(O)c4c(O)c(c(/C=N/N5CCN(C)CC5)c(O)c4c3C2=O)NC(=O)/C(C)=C\C=C\[C@H](C)[C@H](O)[C@@H](C)[C@@H](O)[C@@H](C)[C@H](OC(C)=O)[C@@H]1C [RIFAMPIN] | 1.41 (≈ 1.16 µg/mL) | 0.39 (≈ 0.321 µg/mL) | – | 98 | – | 138 | – | – | – | – | – | – |
| CO[C@H]1/C=C/O[C@@]2(C)Oc3c(C)c(O)c4c(c3[C@H]2O)C2=NC3(CC[N+]([O-])(CC(C)C)CC3)NC2=C(NC(=O)/C(C)=C\C=C\[C@H](C)[C@H](O)[C@@H](C)[C@@H](O)[C@@H](C)[C@H](OC(C)=O)[C@@H]1C)C4=O (stereo partly specified) | – | – | 53 | – | 44 | – | 0.6 (≈ 0.694 µM) | – | – | – | – | – |
| CCCCCCCCCCCCCCCC(=O)N1C2=C3NC(=O)/C(C)=C\C=C\[C@H](C)[C@H](O)[C@@H](C)[C@@H](O)[C@@H](C)[C@H](OC(C)=O)[C@H](C)[C@@H](OC)/C=C/O[C@@]4(C)Oc5c(C)c(O)c(c(c5C4=O)C2=NC12CCN(CC(C)C)CC2)C3=O | 1.08 (≈ 1.17 µg/mL) | 0.14 (≈ 0.152 µg/mL) | – | >32 | – | > 34.8 | 0.1 (≈ 0.0921 µM) | – | – | – | – | – |
| CO[C@H]1/C=C/O[C@@]2(C)Oc3c(C)c(O)c4c(c3C2=O)C2=NC3(CC[N+]([O-])(CC(C)C)CC3)NC2=C(NC(=O)/C(C)=C\C=C\[C@H](C)[C@H](O)[C@@H](C)[C@@H](O)[C@@H](C)[C@H](O)[C@@H]1C)C4=O (stereo partly specified) | – | – | – | – | – | – | 0.6 (≈ 0.731 µM) | inactive | – | – | – | – |
| C=CCCCCCCCCC(=O)N1C2=C3NC(=O)/C(C)=C\C=C\[C@H](C)[C@H](O)[C@@H](C)[C@@H](O)[C@@H](C)[C@H](OC(C)=O)[C@H](C)[C@@H](OC)/C=C/O[C@@]4(C)Oc5c(C)c(O)c(c(c5C4=O)C2=NC12CCN(CC(C)C)CC2)C3=O | 0.08 (≈ 0.0811 µg/mL) | 0.08 (≈ 0.0811 µg/mL) | > 99 | 462 | 60 | 36.9 | 0.1 (≈ 0.0987 µM) | – | inactive | inactive | inactive | – |
| CO[C@H]1/C=C/O[C@@]2(C)Oc3c(C)c(O)c4c(c3C2=O)C2=NC3(CCN(CC(C)C)CC3)N(C(C)=O)C2=C(NC(=O)/C(C)=C\C=C\[C@H](C)[C@H](O)[C@@H](C)[C@@H](O)[C@@H](C)[C@H](OC(C)=O)[C@@H]1C)C4=O | 0.28 (≈ 0.249 µg/mL) | 0.18 (≈ 0.16 µg/mL) | > 99 | >331 | > 99 | > 92.7 | < 0.013 | – | – | Active | Active | – |
| CO[C@H]1/C=C/O[C@@]2(C)Oc3c(C)c(O)c4c(c3C2=O)C2=NC3(CCN(CC(C)C)CC3)NC2=C(NC(=O)/C(C)=C\C=C\[C@H](C)[C@H](O)[C@@H](C)[C@@H](O)[C@@H](C)[C@H](OC(C)=O)[C@@H]1C)C4=O [RIFABUTIN] | 0.08 (≈ 0.0678 µg/mL) | 0.05 (≈ 0.0424 µg/mL) | – | >582 | > 99 | > 46.6 | < 0.013 | – | – | – | – | > 99 |
| CO[C@H]1/C=C/O[C@@]2(C)Oc3c(C)c(O)c4c(c3[C@H]2O)C2=NC3(CCN(CC(C)C)CC3)N(C(C)=O)C2=C(NC(=O)/C(C)=C\C=C\[C@H](C)[C@H](O)[C@@H](C)[C@@H](O)[C@@H](C)[C@H](OC(C)=O)[C@@H]1C)C4=O | – | – | > 99 | – | 54 | – | 0.1 (≈ 0.112 µM) | – | – | – | – | – |
| CO[C@H]1/C=C/O[C@@]2(C)Oc3c(C)c(O)c4c(c3[C@H]2O)C2=NC3(CCN(CC(C)C)CC3)NC2=C(NC(=O)/C(C)=C\C=C\[C@H](C)[C@H](O)[C@@H](C)[C@@H](O)[C@@H](C)[C@H](OC(C)=O)[C@@H]1C)C4=O [RIFABUTINOL] | – | – | > 99 | – | 86 | – | < 0.05 | – | – | – | – | – |
| CO[C@H]1/C=C/O[C@@]2(C)Oc3c(C)c(O)c4c(c3[C@H]2O)C2=NC3(CCN(CC(C)C)CC3)NC2=C(NC(=O)/C(C)=C\C=C\[C@H](C)[C@H](O)[C@@H](C)[C@@H](O)[C@@H](C)[C@H](O)[C@@H]1C)C4=O | – | – | – | – | – | – | 0.2 (≈ 0.248 µM) | inactive | – | – | – | – |
| CO[C@H]1/C=C/O[C@@]2(C)Oc3c(C)c(O)c4c(c3C2=O)C2=NC3(CC[N+]([O-])(CC(C)C)CC3)NC2=C(NC(=O)/C(C)=C\C=C\[C@H](C)[C@H](O)[C@@H](C)[C@@H](O)[C@@H](C)[C@H](OC(C)=O)[C@@H]1C)C4=O (stereo partly specified) | 0.44 (≈ 0.38 µg/mL) | 0.28 (≈ 0.242 µg/mL) | – | >82 | – | > 35.8 | 0.2 (≈ 0.232 µM) | inactive | – | – | – | – |
